Three compounds from PMC4854855 (EJNMMI Research, 2016) can be followed below.

Where “and” joins values, the source holds several entries; their conditions need not be identical. Equal values may be shown once. Entries after “also recorded” stand apart in the source; their conditions may differ.

The subject of data set [1] is PSMA+ LNCaP tumor. Kind of data set: Dynamic PET imaging in LNCaP tumor-bearing BALB/c nude mice. The class given is in vivo, mouse. The protocol:
PET imaging experiments were carried out in LNCaP and PC3 tumor-bearing Balb/c nude mice (Charles River Laboratories, Quebec, Canada). Male Balb/c nude mice were housed under standard conditions with free access to standard food and tap water. LNCaP and PC3 cells (5 × 10^6 cells in 100 μL of PBS) were injected into the upper left flank of the mice (20–24 g). Before injecting LNCaP cells, the mice received a 1.0-mg/pellet containing testosterone in a 60-day release preparation (Innovative Research of America, Sarasota, FL, USA). The pellet was implanted subcutaneously into the upper right flank in order to provide a constant level of testosterone needed by the androgen receptor positive LNCaP cells. Tumors reached sizes of approximately 1 cm^3 which were suitable for all in vivo experiments. General anesthesia of tumor-bearing mice was induced with inhalation of isoflurane in 40 % oxygen/60 % nitrogen (gas flow = […]), and the mice were subsequently fixed in prone position. The body temperature was kept constant at 37 °C for the entire experiment. The mice were positioned in a prone position into the center of the field of view. A transmission scan for attenuation correction was not acquired. […] For blocking studies, the animals were pre-dosed with 300 μg of DCFPyL in 50 μL saline about 10 min prior to radiotracer injection. Data acquisition was performed over 60 min in a 3D list mode. The dynamic list mode data were sorted into sinograms with 53 time frames (10 × 2, 8 × 5, 6 × 10, 6 × 20, 8 × 60, 10 × 120, 5 × 300 s). The frames were reconstructed using maximum a posteriori (MAP) as reconstruction mode. The pixel size was 0.085 × 0.085 × 0.121 mm^3 (256 × 256 × 63), and the resolution in the center of the field of view was 1.8 mm. No correction for partial volume effects was applied. The image files were processed using the ROVER v 2.0.51 software (ABX GmbH, Radeberg, Germany). Masks defining 3D regions of interest (ROI) were set and the ROIs were defined by thresholding. Mean standardized uptake values [SUV]mean = (activity/mL tissue)/(injected activity/body weight), mL/g, were calculated for each ROI. Time-activity curves (TACs) were generated for the dynamic scans only. All semi-quantified PET data are presented as means ± SEM. Statistical difference for the blocking study was tested by unpaired Student’s t test and was considered significant for P < 0.05.

Data set [2] in a line: Storage stability of labeling precursor. Format: physicochemical. The settings on record: solid, stored at 4 °C.
In data set [3] the test system is PSMA− PC3 tumor. Briefly: Tracer kinetic analysis (reversible two-tissue compartmental model), PC3 tumors. The class given is in vivo, mouse. The protocol:
(§1) Tracer kinetic analysis was performed using a two-tissue compartmental model using dynamically acquired PET imaging data. Full details on tracer kinetic analysis are given in the Additional file 1. […] Tracer kinetic analysis was carried out with PET imaging data acquired dynamically from PSMA+ LNCaP and PSMA− PC3 tumor-bearing mice (see Fig. 7). Four kinetic parameters (K1, k2, k3, k4) describing the flow of the radiotracer from the blood to the tissue (K1) and from the tissue into the blood (k2), binding of the radiotracer to the tissue (k3) and dissociation from the tissue (k4), were calculated. The analysis was performed by fitting the measured TACs with a two-exponential model of the general form as described, e.g., by van den Hoff (Additional file 1: Figure S2). Tracer kinetic analysis was performed using a two-tissue compartmental model using dynamically acquired PET imaging data. A volume of interest (VOI) was defined for the tumor using the Rover software (ABX GmbH, Dresden, Germany) by applying a threshold of 50% SUVmax within an ellipsoid mask around the tumor on an image representing the average of the last 40 min of the acquisition (i.e. excluding the tracer uptake phase). Image derived input functions were obtained from regions around the heart, defined by the injected blood bolus visible in the first few time fames of the dynamic acquisitions, using a threshold of 75% of SUVmax in that region. Four kinetic parameters (K1, k2, k3, k4) and the fractional blood volume (fbv) which accounts for the non-zero vascular space within the tumor ROI, describe the model. The analysis was carried out by fitting the measured tumor time-activity curves (TACs) with a two-exponential model of the general form: The fit of equation [1] to the experimentally acquired tumor TACs was implemented in Matlab (The Mathworks, Inc., v. R2014b), utilizing a Nelder-Mead simplex direct search. The fit was governed by the minimization of the sum over all time points of square differences between the measured values and the model prediction (Figure S2).

A short description of data set [4]: Radiometabolite analysis / in vivo metabolic stability in BALB/c mice. Details: species or system mouse. The method, then: Venous blood samples were collected at 5, 15, 30, and 60 min p.i. via the mouse tail vein and further processed. Blood cells were separated by centrifugation (13,000 rpm × 5 min). Precipitation of proteins in the supernatant was achieved by the addition of 2 volume parts of MeOH, and the samples were centrifuged again (13,000 rpm × 5 min). Fractions of blood cells, proteins, and plasma were measured in a Wizard gamma counter to determine radioactivity per sample. The clear plasma supernatant was injected onto a Shimadzu HPLC system.
The samples were analyzed using a Phenomenex Luna 10u C18 [2] 100 A, 250 × 4.6 mm column at a constant flow rate of 1 mL min^−1 and the following gradient with water/0.2 % TFA as solvent A and CH3CN as solvent B: 0–7.5 min 20 % B, 7.5–15 min gradient to 90 % B, 15–20 min 90 % B.

Data set [5] has as its system PSMA− PC3 tumor. Kind of data set: Dynamic PET imaging in PC3 tumor-bearing BALB/c nude mice. Format: in vivo, mouse. Conditions: 60 min p.i. The protocol: PET imaging experiments were carried out in LNCaP and PC3 tumor-bearing Balb/c nude mice (Charles River Laboratories, Quebec, Canada). Male Balb/c nude mice were housed under standard conditions with free access to standard food and tap water. LNCaP and PC3 cells (5 × 10^6 cells in 100 μL of PBS) were injected into the upper left flank of the mice (20–24 g). Before injecting LNCaP cells, the mice received a 1.0-mg/pellet containing testosterone in a 60-day release preparation (Innovative Research of America, Sarasota, FL, USA). The pellet was implanted subcutaneously into the upper right flank in order to provide a constant level of testosterone needed by the androgen receptor positive LNCaP cells. Tumors reached sizes of approximately 1 cm^3 which were suitable for all in vivo experiments. General anesthesia of tumor-bearing mice was induced with inhalation of isoflurane in 40 % oxygen/60 % nitrogen (gas flow = […]), and the mice were subsequently fixed in prone position. The body temperature was kept constant at 37 °C for the entire experiment. The mice were positioned in a prone position into the center of the field of view. A transmission scan for attenuation correction was not acquired. […] Mean standardized uptake values [SUV]mean = (activity/mL tissue)/(injected activity/body weight), mL/g, were calculated for each ROI. […] All semi-quantified PET data are presented as means ± SEM. […]

Data set [6] in a line: Stability of the product in saline (quality control). Format: physicochemical. Conditions: up to 4 h. The method, then:
Radio-TLC analysis on silica gel plates gave a Rf value of 0.6 in 95 % CH3CN/H2O (Additional file 1: Figure S4).
[^18F]fluoride. Radio-TLC analysis on silica gel plates gave a Rf value of 0.6 in 95 % CH3CN/H2O (Additional file 1: Figure S4), and the product was stable (>95 %) in saline of up to 4 h.

In another data set the test system is PSMA+ LNCaP cells. Briefly: Cell-specific internalization experiment in LNCaP cells. Format: cell-based. The method, then:
(§2) 10^5 LNCaP or PC3 cells were seeded in poly-D-lysine-coated 12-well plates 24–48 h before the assay so that cells could reach 95 % confluency. The medium was removed 1 h before the assay, and the cells were rinsed twice with PBS. After the addition of Krebs buffer (1 mL) to each well, the cells were incubated at 37 °C. […] Cellular uptake was stopped by removing incubation media from the cells and washing the wells twice with ice-cold PBS buffer (1 mL). Surface-bound radioactivity was removed from the cells through incubating the cells twice with 0.5 mL glycine-HCl in PBS (50 mM, pH 2.5) for 5 min at 37 °C. Cells were washed again with ice-cold PBS before the addition of radio-immunoprecipitation assay (RIPA) buffer (400 μL) to lyse the cells. Cells were returned into the incubator for 10 min, and cell lysates were collected for counting. Radioactivity of surface-bound and internalized fraction was measured in a WIZARD2 Automatic gamma counter (Perkin Elmer, Waltham, MA, USA). Total protein concentration in the samples was determined by the bicinchoninic acid method (BCA; Pierce, Thermo Scientific 23227) using bovine serum albumin (800, 600, 400, 300, 200, 100, 50 μg/mL, blank) as protein standard. Data are expressed as percent of total uptake per 1 mg protein (% of total uptake/mg protein).

For data set [7], the system named is PSMA+ LNCaP tumor. Briefly: Tracer kinetic analysis (reversible two-tissue compartmental model), LNCaP tumors. The class given is in vivo, mouse. The method, then: as §1
In a further data set the test system is PSMA− PC3 cells. Briefly: Cell-specific internalization experiment in PC3 cells. The class given is cell-based. The settings on record: 60 min, 37 °C. The protocol:
as §2

The mark [8] stands for this setting: LNCaP, two-tissue compartmental model.

As to `O=C(O)CC[C@H](NC(=O)N[C@@H](CCCCNC(=O)c1ccc(F)nc1)C(=O)O)C(=O)O` [DCFPyL, reference compound], in the data set on PSMA+ LNCaP tumor [1] (60 min p.i., 300 μg DCFPyL before radiotracer), the “reduction of [18F]DCFPyL radioactivity uptake in LNCaP tumor upon pretreatment with DCFPyL” value was found to be 80%.

As for `CC(C)(C)OC(=O)CCC(NC(=O)NC(CCCCNC(=O)c1ccc([N+](C)(C)C)nc1)C(=O)OC(C)(C)C)C(=O)OC(C)(C)C` (centres unmarked) [Compound 9], the “storage time without significant decomposition” value in data set [2] is recorded as “at least 3 months”.

Take `O=C(O)CCC(NC(=O)NC(CCCCNC(=O)c1ccc([18F])nc1)C(=O)O)C(=O)O` [[^18F]DCFPyL, (S)-2-[3-((S)-1-carboxy-5-[3-(6-fluoropyridine)carbonyl)amino)pentyl)ureido]-pentanedioic acid]: in the data set on PSMA− PC3 tumor [3], the “coefficient k3/(k3 + k2), fraction entering the second compartment” value stood at 0.058; the “k3 (binding of radiotracer to tissue)” value was determined as 0.008; the “net delivery K1/k2” value is 0.49; the “retention k3/k4” value is listed as 0.13. In addition, the “radiometabolites in urine (radio-HPLC)” value in data set [4] (60 min p.i.) was “contained only parent compound; also recorded: no radiometabolites were detected”. In [4] (n = 3), the “binding to plasma proteins (distribution in blood)” value is “low binding of the radiotracer to blood cells and plasma proteins; also recorded: only minimal binding to plasma proteins”. In [4] (over 60 min p.i.), the “radiometabolites in plasma (radio-HPLC)” value is reported as “no radiometabolites were detected”. Also, the “SUV60min, radioactivity uptake in PC3 tumors” value with PSMA− PC3 tumor [5] is 0.11 and 0.1. The “SUV5min, radioactivity uptake in LNCaP tumors” value in the data set on PSMA+ LNCaP tumor [1] (5 min p.i., dynamic PET) turned out to be 0.95. In addition, the “SUV60min, muscle as reference tissue” value in the data set with PSMA+ LNCaP tumor [1] (60 min p.i.) is recorded as 0.06. Further, the “SUV60min, radioactivity uptake in LNCaP tumor (control)” value in the data set on PSMA+ LNCaP tumor [1] (60 min p.i., dynamic PET) is 1.1 and 1.1 ± 0.1. Besides, the “SUV60min, LNCaP tumor, blocked” value with PSMA+ LNCaP tumor [1] (60 min p.i., pre-dosed with 300 μg nonradioactive DCFPyL) is 0.22 and 0.2 ± 0.05. For the same compound, the “stability of product in saline” value in [6] is reported as > 95%. Moreover, in the data set with PSMA+ LNCaP cells (60 min, 37 °C), the “radioactivity uptake, internalized fraction” value is 35.05 ± 0.69 % of total uptake/mg protein and the “radioactivity uptake, membrane-bound fraction” value is on record as 45.47 ± 1.01 % of total uptake/mg protein. Besides, the “fraction of internalized radioactivity” value in the data set with PSMA+ LNCaP cells (60 min incubation) came out at 44%. Besides, in the data set on PSMA+ LNCaP tumor [7] (LNCaP tumors), the “coefficient k3/(k3 + k2), fraction entering the second compartment” value is 0.314 and the “retention k3/k4” value is 20.5. Moreover, in the data set on PSMA+ LNCaP tumor [7] (setting [8]), the “K1 (flow of radiotracer from blood to tissue)” value came to 0.12 min⁻¹; the “k2 (flow from tissue into blood)” value was determined as 0.18 min⁻¹; the “k3 (binding of radiotracer to tissue)” value is 0.08 min⁻¹ and 0.082 min⁻¹; the “k4 (dissociation from tissue)” value was found to be 0.004 min⁻¹. In addition, in the data set with PSMA− PC3 cells, the “radioactivity uptake, internalized fraction” value is recorded as 0.76 ± 0.05 % of total uptake/mg protein and the “radioactivity uptake, membrane-bound fraction” value is given as 4.30 ± 0.40 % of total uptake/mg protein.
